From patent publication EP1375483A1, “6-CHLORO-3-PYRIDYLMETHYLPROPYLAMINE DERIVATIVES, PREPARATION PROCESS THEREOF AND BACTERICIDES” (KUREHA KAGAKU KOGYO KABUSHIKI KAISHA, priority 2001, dated 2001)
Read-outs that look alike come from different tables or passages of the source.

Legend:
wheat powdery mildew [1] = assay: Test of control effect on wheat powdery mildew (Test Example 1); format: in vivo; details: wettable powder 125 mg/l, 100 liters/10 a, sprinkled on wheat seedlings (Nourin 64) before inoculation, examined 9th to 14th day after inoculation; for pest or weed control at 125 µg/mL: Triticum aestivum
Experimental: Wettable powders were prepared from compounds of the present invention I-1 to I-27 and comparative compounds (a) to (d) , (m-1) and (m-3). The obtained wettable powder was diluted and suspended with water to provide the predetermined concentration (125 mg/l), and was sprinkled onto seedlings of wheat (variety: "Nourin 64") at the first to the second leaf period which were cultivated using square plastic pots (size: 6.4 cm x 6.4 cm) in a rate of 100 liters/10 a (ares). After drying the sprinkled leaves with air, a suspension of wheat powdery mildew spores taken from infected leaves was inoculated by spraying onto the sprinkled leaves. They were supervised in a green house (temperature: 20 to 24°C, relative humidity: 20 to 70 RH). On the 9th to 14th day after the inoculation, the infection degree was examined according to the following scale and the control value of each compound was calculated by the following calculation equation 1. [table] (Equation 1) Control value = (1 - infection degree of treated zone/infection degree of untreated zone) x 100 (%) [formula] The control values of each compound are shown in Table 8.

Venturia inaequalis = assay: Antifungal activity test against various pathogenic fungi, hypha extension on PDA plates (Test Example 3); format: cell-based; details: 3.2 ppm in PDA culture medium, cultured 1 to 7 days, read-out: Growth Inhibition V.i (3.2)
[2] = test system: Pseudocercosporella herpotrichoides; assay: as above; format: cell-based; details: Oculimacula yallundae; Pseudocercosporella herpotrichoides, 25 ppm in PDA culture medium, cultured 1 to 7 days; read-out: Growth Inhibition P.h (25)
Rhynchosporium secalis = assay: as above; format: cell-based; details: 100 ppm in PDA culture medium, cultured 1 to 7 days, read-out: Growth Inhibition R.s (100)
Pyrenophora graminea = assay: as above; format: cell-based; details: 12.5 ppm in PDA culture medium, cultured 1 to 7 days, read-out: Growth Inhibition P.g (12.5)
cucumber powdery mildew = assay: Test of control effect on cucumber powdery mildew (Test Example 2); format: in vivo; details: wettable powder 100 mg/l, 100 liters/10 a, sprinkled on cucumbers (Sagamihanpakufushinari) before inoculation, examined 9th to 14th day after inoculation; for pest or weed control at 100 µg/mL: Cucumis sativus
Experimental: The wettable powders formulated by using each of the compounds I-1 to 27 according to the present invention and the comparative compounds (a) to (d), (m-1) and (m-3) were each diluted and suspended with water to a predetermined concentration (100 mg/l), the suspension was sprinkled over the first to the second leaf period cucumbers (variety: "[…]") cultivated by using a square plastic pot (size: 6. 4 cm x 6. 4 cm) in a rate of 100 liters/10 a (ares). After the sprinkled leaves were air-dried, the spores were inoculated over the leaves by sprinkling the same with a brush from an infected leaf, a disease was contracted in a glass house (temperature: 20 to 24°C, relative humidity: 20 to 70 RH). On the 9th to 14th day after the inoculation, the infection degree was examined according to the following scale and the control value of each compound was calculated by the following calculation equation 2: [table] (Equation 2) Control value = (1 - infection degree of treated zone/infection degree of untreated zone) x 100 (%) [formula] The control values of each compound are shown in Table 9.

wheat powdery mildew [3] = assay: Permeable mobility fungicidal effect test in leaf section of wheat powdery mildew (Test Example 4); format: in vivo
Experimental: In the test example 4, permeable mobility fungicidal effect test was performedon the leaf section of wheat powdery mildew with regard to the compounds I-1 to 27 according to the present invention and the comparative compounds (a) to (d), and (m-1) to (m-3) with the method described later. The compound in the form of a wettable powder obtained by Formulation 2 or the like was diluted and suspended with water to a predetermined concentration (200mg/l), and 0.5 µl of the suspension was applied to a 2 to 3 cm leaf portion from the root of the three leaves of the 4th to 4.5th leaf period wheat (variety: Abukumawase) cultured by using a square plastic pot (size: 6.4 cm x 6.4 cm). After these wheat leaves were subject to still standing in a glass house (temperature: 20 to 24C, relative humidity: 20 to 70 RH) for one day, the spores of wheat powdery mildew were inoculated over the leaves by sprinkling the same with a brush from an infected leaf, a disease was contracted in the same glass house. The length of a non-contracted area generated from the applied portion to the direction of the leaf top was measured, and a relative mobility to the compound (m-2) was calculated with the following calculation […] by using the comparative compound (m-2) as a standard compound. (Equation 4) Relative mobility = (Length of non-contracted area in each chemical section (cm)/Length of non-contracted area of compound (m-2) (cm)) [formula]

Septoria tritici = assay: Antifungal activity test against various pathogenic fungi, hypha extension on PDA plates (Test Example 3); format: cell-based; details: Zymoseptoria tritici; Septoria tritici, 100 ppm in PDA culture medium, cultured 1 to 7 days; read-out: Growth Inhibition S.t (100)
Botrytis cinerea = assay: as above; format: cell-based; details: for inhibition at 1.6 ppm: read-out: Growth Inhibition B.c (1.6)
Leptosphaeria nodorum = assay: as above; format: cell-based; details: Parastagonospora nodorum, read-out: Growth Inhibition L.n (0.8)
Pyricularia oryzae = assay: microbe, parasite or virus in culture; format: cell-based; details: read-out: Growth Inhibition P.o (12.5)
Microdochium nivale = assay: Antifungal activity test against various pathogenic fungi, hypha extension on PDA plates (Test Example 3); format: cell-based; details: 3.2 ppm in PDA culture medium, cultured 1 to 7 days, read-out: Growth Inhibition M.n (3.2)
[4] = length of non-contracted area relative to compound (m-2), 0.5 µl of 200 mg/l suspension applied to wheat leaf (Abukumawase), inoculated after one day
[5] = 1.6 ppm in PDA culture medium, cultured 1 to 7 days
[6] = Leptosphaeria nodorum, 0.8 ppm in PDA culture medium, cultured 1 to 7 days

SMILES	pest or weed control at 125 µg/mL (wheat powdery mildew [1]) [%]	pest or weed control at 100 µg/mL (cucumber powdery mildew) [%]	Relative Mobility (wheat powdery mildew [3]; [4])	inhibition at 1.6 ppm (Botrytis cinerea; [5]) [%]	further results
CC(Cc1ccc(OC(F)(F)F)c(F)c1)CN(C)Cc1ccc(Cl)nc1 (centres unmarked) [Compound I-17, 6-chloro-N-[3-(3-fluoro-4-trifluoromethoxyphenyl)-2-methylpropyl]-N-methyl-3-pyridylmethylamine]	100	100	10	> 90	inhibition at 3.2 ppm (Venturia inaequalis): 70 to 90%; inhibition at 25 ppm [2]: > 90%; inhibition at 100 ppm (Rhynchosporium secalis): > 90%; inhibition at 12.5 ppm (Pyrenophora graminea): 70 to 90%; inhibition at 100 ppm (Septoria tritici): 70 to 90%; inhibition at 0.8 ppm (Leptosphaeria nodorum; [6]): > 90%; inhibition at 12.5 ppm (Pyricularia oryzae): 70 to 90%; inhibition at 3.2 ppm (Microdochium nivale): > 90%
CC(Cc1ccc(F)c(OC(F)(F)F)c1)CN(C)Cc1ccc(Cl)nc1 (centres unmarked) [Compound I-16]	–	–	–	–	Control Value (wheat powdery mildew [1]): 100%; Control Value (cucumber powdery mildew): 100%; Relative Mobility (wheat powdery mildew [3]; 24 h, 200 ug/mL): 9; inhibition at 1.6 ppm (Botrytis cinerea): 70 to 90%; inhibition at 0.8 ppm (Leptosphaeria nodorum): > 90%
Cc1ccc(CC(C)CN(C)Cc2ccc(Cl)nc2)cc1C (centres unmarked) [(m-1), 6-chloro-N-[3-(3,4-dimethylphenyl)-2-methylpropyl]-N-me thyl-3-pyridylmethylamine]	10	10	1	20 to 40	–
COc1cccc(CC(C)CN(C)Cc2ccc(Cl)nc2)c1 (centres unmarked) [(m-3), 6-chloro-N-[3-(3-methoxyphenyl)-2-methylpropyl]-N-methy 1-3-pyridylmethylamine]	–	–	1	–	Control Value (wheat powdery mildew [1]): 0%; Control Value (cucumber powdery mildew): 0%; Growth Inhibition B.c (1.6) (Botrytis cinerea; [5]): 1 (Hypha extension inhibition rate of less than 20%)
CC(Cc1cc(F)cc(Cl)c1)CN(C)Cc1ccc(Cl)nc1 (centres unmarked) [Compound I-21, 6-chloro-N-[3-(3-chloro-5-fluorophenyl)-2-methylpropyl] -N-methyl-3-pyridylmethylamine]	100	100	9	> 90	inhibition at 3.2 ppm (Venturia inaequalis): 70 to 90%; inhibition at 25 ppm [2]: > 90%; inhibition at 100 ppm (Rhynchosporium secalis): > 90%; inhibition at 12.5 ppm (Pyrenophora graminea): > 90%; inhibition at 100 ppm (Septoria tritici): 70 to 90%; inhibition at 0.8 ppm (Leptosphaeria nodorum; [6]): > 90%; inhibition at 12.5 ppm (Pyricularia oryzae): 70 to 90%; inhibition at 3.2 ppm (Microdochium nivale): 70 to 90%
CC(Cc1cccc(OC(F)(F)F)c1)CN(C)Cc1ccc(Cl)nc1 (centres unmarked) [(b), 6-chloro-N-methyl-[2-methyl-3-(3-trifluoromethoxyphenyl)propyl]-3-pyridylmethylamine]	80	60	3	40 to 70	–
CC(Cc1ccccc1Cl)CN(C)Cc1ccc(Cl)nc1 (centres unmarked) [(c-2), 6-chloro-N-[3-(2-chlorophenyl)-2-methylpropyl]-N-methyl-3-pyridylmethylamine, reference compound]	40	0	1	20 to 40	inhibition at 3.2 ppm (Venturia inaequalis): 20 to 40%; inhibition at 100 ppm (Rhynchosporium secalis): 20 to 40%; inhibition at 12.5 ppm (Pyrenophora graminea): 20 to 40%; inhibition at 0.8 ppm (Leptosphaeria nodorum; [6]): 40 to 70%; inhibition at 12.5 ppm (Pyricularia oryzae): 40 to 70%; inhibition at 3.2 ppm (Microdochium nivale): 20 to 40%
CC(Cc1ccc(C(F)(F)F)c(F)c1)CN(C)Cc1ccc(Cl)nc1 (centres unmarked) [Compound I-9, 6-chloro-N-[3-(3-fluoro-4-trifluoromethylphenyl)-2-methylpropyl]-N-methyl-3-pyridylmethylamine]	100	100	3	70 to 90	inhibition at 100 ppm (Septoria tritici): 70 to 90%
CC(Cc1cccc(Cl)c1Cl)CN(C)Cc1ccc(Cl)nc1 (centres unmarked) [(c-1), 6-chloro-N-[3-(2,3-dichlorophenyl)-2-methylpropyl]-N-me thyl-3-pyridylmethylamine]	40	0	1	20 to 40	–
CC(Cc1cccc(C(F)(F)F)c1)CN(C)Cc1ccc(Cl)nc1 (centres unmarked) [(a), 6-chloro-N-methyl-[2-methyl-3-(3-trifluoromethylphenyl)propyl]-3-pyridylmethylamine]	70	50	1	20 to 40	–
CC(Cc1ccc2c(c1)OCO2)CN(C)Cc1ccc(Cl)nc1 (centres unmarked) [(d), 6-chloro-N-[2-methyl-3-(3,4-methylenedioxyphenyl)propyl]-N-methyl-3-pyridylmethylamine]	10	0	1	< 20	–
CC(Cc1ccc(C(C)(C)C)cc1)CN(C)Cc1ccc(Cl)nc1 (centres unmarked) [(m-2), N-[3-(4-t-butylphenyl)-2-methylpropyl]-6-chloro-N-methy 1-3-pyridylmethylamine]	–	–	1	–	–
CC(Cc1cccc(F)c1)CN(C)Cc1ccc(Cl)nc1 (centres unmarked) [(c-4), 6-chloro-N-[3-(3-fluorophenyl)-2-methylpropyl]-N-methyl-3-pyridylmethylamine, reference compound]	10	0	1	< 20	inhibition at 3.2 ppm (Venturia inaequalis): 20 to 40%; inhibition at 100 ppm (Rhynchosporium secalis): 20 to 40%; inhibition at 12.5 ppm (Pyrenophora graminea): 20 to 40%; inhibition at 0.8 ppm (Leptosphaeria nodorum; [6]): 40 to 70%; inhibition at 12.5 ppm (Pyricularia oryzae): 40 to 70%; inhibition at 3.2 ppm (Microdochium nivale): 20 to 40%
CC(Cc1cccc(Cl)c1)CN(C)Cc1ccc(Cl)nc1 (centres unmarked) [(c-3), 6-chloro-N-[3-(3-chlorophenyl)-2-methylpropyl]-N-methyl-3-pyridylmethylamine]	50	0	1	20 to 40	–
